These results are taken from ChEMBL document CHEMBL1201862, “PubChem BioAssay data set” (2004).

Several values for one entry are separate records, joined by “and”; a condition that tells them apart may be missing. Equal entries are not always repeated. Activity calls are given as the source filed them.

As a reminder, the EC50 is the concentration giving half of the maximal effect. By IC50 is commonly meant the concentration needed to halve the response being measured. Usually AC50 stands for the concentration giving half of the maximal activity seen.

Assay [1] has as its target Voltage-dependent T-type calcium channel subunit alpha-1H (Homo sapiens, UniProt O95180). Put plainly: inhibition of CACNA1H calcium flux – cell-based, SynthLib3 library, HEK293 Cav3.2, fluorescence (AID 493041). It counts as functional.
The target in the next assay is SUMO E1/E2 (Homo sapiens, UniProt P63279+Q9UBE0+Q9UBT2). Put plainly: SAR analysis of SUMOylation using HTRF in an in-Vitro dose response assay. [Related pubchem assays (depositor defined):AID2006, AID2011, AID2018, AID2069, AID2658]. In kind it is functional. (In general: In TR-FRET formats the signal depends on donor and acceptor labels being close together.)
Sequence of SUMO E1/E2 (Q9UBE0 whole entry): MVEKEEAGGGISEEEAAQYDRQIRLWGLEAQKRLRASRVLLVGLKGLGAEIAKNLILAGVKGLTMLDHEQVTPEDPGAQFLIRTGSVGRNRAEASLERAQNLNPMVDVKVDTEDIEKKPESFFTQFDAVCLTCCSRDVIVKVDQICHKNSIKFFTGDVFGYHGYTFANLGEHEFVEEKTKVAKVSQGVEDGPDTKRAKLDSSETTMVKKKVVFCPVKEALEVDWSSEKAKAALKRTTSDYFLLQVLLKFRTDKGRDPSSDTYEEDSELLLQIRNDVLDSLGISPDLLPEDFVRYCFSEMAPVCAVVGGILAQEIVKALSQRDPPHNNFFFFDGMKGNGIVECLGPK
Sequence of SUMO E1/E2 (Q9UBT2 whole entry): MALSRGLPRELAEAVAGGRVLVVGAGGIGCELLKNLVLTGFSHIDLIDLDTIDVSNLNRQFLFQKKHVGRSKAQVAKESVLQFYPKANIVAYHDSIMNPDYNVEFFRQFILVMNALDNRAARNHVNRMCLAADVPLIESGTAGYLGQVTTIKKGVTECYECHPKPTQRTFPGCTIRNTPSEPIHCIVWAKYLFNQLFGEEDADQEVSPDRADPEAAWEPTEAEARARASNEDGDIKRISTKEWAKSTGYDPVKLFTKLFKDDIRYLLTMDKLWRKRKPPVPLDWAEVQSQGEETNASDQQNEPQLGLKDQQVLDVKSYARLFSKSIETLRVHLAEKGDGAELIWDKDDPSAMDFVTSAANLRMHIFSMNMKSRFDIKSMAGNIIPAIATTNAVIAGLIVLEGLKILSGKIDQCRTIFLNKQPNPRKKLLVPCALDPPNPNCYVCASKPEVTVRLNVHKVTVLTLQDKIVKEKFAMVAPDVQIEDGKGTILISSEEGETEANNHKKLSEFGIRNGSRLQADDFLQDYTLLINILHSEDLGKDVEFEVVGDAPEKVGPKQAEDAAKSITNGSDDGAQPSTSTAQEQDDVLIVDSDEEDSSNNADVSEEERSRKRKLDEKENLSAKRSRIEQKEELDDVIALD
Sequence of SUMO E1/E2 (P63279 whole entry): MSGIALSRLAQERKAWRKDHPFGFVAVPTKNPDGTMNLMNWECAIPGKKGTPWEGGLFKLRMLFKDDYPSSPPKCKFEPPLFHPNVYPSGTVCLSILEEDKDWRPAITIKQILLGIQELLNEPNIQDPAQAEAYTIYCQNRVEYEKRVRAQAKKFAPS
Assay [2] concerns the target T1, Voltage-gated N-type calcium channel alpha-1B subunit/Amyloid beta A4 precursor protein-binding family A member 1 (Homo sapiens, UniProt Q00975+Q02410). Put plainly: disruptors of Mint-PDZ/N-type channel peptide interaction – biochemical, HTRF, set 2, SAR follow-up (AID 434980). In kind it is functional.
Assay [3] deals with T1, Voltage-gated N-type calcium channel alpha-1B subunit/Amyloid beta A4 precursor protein-binding family A member 1. Put plainly: disruptors of Mint-PDZ/N-type channel peptide interaction – biochemical, HTRF, SAR follow-up (AID 2489). It counts as functional.
The target of assay [4] is Metabotropic glutamate receptor 1 (Rattus norvegicus, UniProt P23385). Put plainly: Modulation of the Metabotropic Glutamate Receptor mGluR4: Selectivity at mGluR1. [Related pubchem assays (depositor defined):AID2437, AID2807]. It counts as functional.
Assay [5] deals with Metabotropic glutamate receptor 3 (Rattus norvegicus, UniProt P31422). Put plainly: Modulation of the Metabotropic Glutamate Receptor mGluR4: Selectivity at mGluR3. [Related pubchem assays (depositor defined):AID2437, AID2807]. In kind it is functional.
For assay [6], the target named is Metabotropic glutamate receptor 6 (Homo sapiens, UniProt O15303). Put plainly: Modulation of the Metabotropic Glutamate Receptor mGluR4: Selectivity at mGluR6. [Related pubchem assays (depositor defined):AID2437, AID2807]. In kind it is functional.
Assay [7] deals with Metabotropic glutamate receptor 2 (Rattus norvegicus, UniProt P31421). Put plainly: mGluR2 modulation, off-target check – cell-based, rat, selectivity assay for mGluR4 modulator project (AID 2188). In kind it is functional.
The target in assay [8] is Metabotropic glutamate receptor 8 (Rattus norvegicus, UniProt P70579). Put plainly: Modulation of the Metabotropic Glutamate Receptor mGluR4: Selectivity at mGluR8. [Related pubchem assays (depositor defined):AID2437, AID2807]. In kind it is functional.
The nature of assay [9]: NIH3T3 cell viability loss – ATP luminescence, mouse fibroblasts, counter-screen, dose response (AID 2010).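 Further: cells exposed to compound for about 90 hours before reading.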 It counts as functional, cell-based. (In general: The purpose of a counterscreen is to sort out artefacts and off-target activity.)
Assay [10] deals with T2, Mannose-6-phosphate isomerase (Homo sapiens, UniProt P34949).
T2 sequence (P34949 whole entry): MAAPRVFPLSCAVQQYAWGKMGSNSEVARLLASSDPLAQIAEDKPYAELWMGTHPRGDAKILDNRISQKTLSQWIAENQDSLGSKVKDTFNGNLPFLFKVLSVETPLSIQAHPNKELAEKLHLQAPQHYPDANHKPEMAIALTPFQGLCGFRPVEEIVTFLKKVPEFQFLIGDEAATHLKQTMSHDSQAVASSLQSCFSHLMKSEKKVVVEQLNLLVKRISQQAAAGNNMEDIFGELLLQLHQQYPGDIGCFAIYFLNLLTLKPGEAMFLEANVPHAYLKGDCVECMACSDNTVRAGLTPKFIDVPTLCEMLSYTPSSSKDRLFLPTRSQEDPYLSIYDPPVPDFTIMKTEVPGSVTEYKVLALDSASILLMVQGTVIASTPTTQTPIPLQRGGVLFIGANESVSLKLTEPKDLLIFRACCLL
Put plainly: MPI enzyme activity inhibition – biochemical, fluorescence intensity, coupled assay, primary screen (AID 1209).

The nature of assay [11]: MIN6 cell viability loss – mouse insulinoma, cytotoxicity control, dose response (AID 2122).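 Further: confirmatory high-throughput counterscreen run to flag cytotoxic compounds.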 In kind it is functional.
A short description of assay [12]: viability of HCT116 lacking mutant beta-catenin – cell-based, human colon tumor, dose response (AID 1045).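 Further: HCT116 colon tumor cells with beta catenin knocked out; cells exposed to compound for 60 hours.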 It counts as functional.
In assay [13] the target is T3, DNA repair and recombination protein RAD54-like (Homo sapiens, UniProt Q92698).
T3 sequence (Q92698 whole entry): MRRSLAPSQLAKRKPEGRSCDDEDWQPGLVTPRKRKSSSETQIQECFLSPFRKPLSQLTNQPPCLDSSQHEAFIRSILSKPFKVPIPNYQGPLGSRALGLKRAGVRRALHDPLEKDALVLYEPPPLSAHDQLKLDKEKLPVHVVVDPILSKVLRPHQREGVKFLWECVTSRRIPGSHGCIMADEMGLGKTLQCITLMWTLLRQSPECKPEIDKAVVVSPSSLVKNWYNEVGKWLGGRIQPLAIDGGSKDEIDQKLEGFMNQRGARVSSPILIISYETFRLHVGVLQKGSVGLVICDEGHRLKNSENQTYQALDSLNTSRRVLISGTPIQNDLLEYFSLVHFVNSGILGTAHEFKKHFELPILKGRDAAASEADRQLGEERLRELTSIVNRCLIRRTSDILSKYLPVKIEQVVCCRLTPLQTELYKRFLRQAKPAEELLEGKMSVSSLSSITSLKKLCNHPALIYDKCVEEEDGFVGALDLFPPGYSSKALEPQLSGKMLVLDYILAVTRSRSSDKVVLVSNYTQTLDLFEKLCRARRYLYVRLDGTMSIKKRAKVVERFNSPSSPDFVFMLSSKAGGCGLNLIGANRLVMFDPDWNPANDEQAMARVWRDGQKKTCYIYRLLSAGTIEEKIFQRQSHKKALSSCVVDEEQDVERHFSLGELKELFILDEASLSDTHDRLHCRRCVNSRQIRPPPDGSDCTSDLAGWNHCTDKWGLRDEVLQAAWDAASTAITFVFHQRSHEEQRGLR
Put plainly: RAD54 Holliday junction migration blockers – biochemical, fluorescence, cherry-picked samples, dose series, confirmation (AID 651657). It counts as functional.

The next assay concerns the target Nonstructural protein 1 (Influenza A virus, UniProt Q194T2). In kind it is functional, Influenza A virus (A/California/07/2009(H1N1)).
A short description of assay [14]: decrease of insulin promoter-GFP reporter – imaging, high-content screening, mouse beta cells (AID 1628). It counts as functional. The note with it: MIN6.
Assay [15] in a line: Trypanosoma cruzi growth suppression in host cells – NIH3T3 host cells, beta-gal luminescence, confirmation (AID 2044).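 Further: intracellular parasites grown in NIH/3T3 mouse fibroblasts as host cells; luminescent beta-galactosidase reporter signal from transgenic T. cruzi replicating inside host cells; inhibitors lower the luminescence signal.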 In kind it is functional, cell-based.
Another assay has as its system INS1. Put plainly: INS-1E survival protection against cytokine death – cell-based, luminescence, retest, dose response (AID 449756).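 Further: cell death triggered by IL-1 beta plus TNF-alpha plus IFN-gamma mixture; protective hits raise ATP signal compared with cytokine alone wells.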 It counts as functional. Particulars: Rattus norvegicus.
The nature of assay [16]: Luminescence-based counterscreen assay for KLF5 inhibitors: dose response cell-based high throughput screening assay to identify cytotoxic compounds using the IEC-6 intestinal epithelial cell line. [Related pubchem assays: 1700 (Primary screen.), 1834 (Confirmation screen.), 1858 (Summary AID.), 1905 (Counterscreen.)]. In kind it is functional.
Assay [17] is described as follows: cytotoxicity toward MDA-MB-231 breast cancer cells – cell-based, CellTiter-Glo luminescence, cherry-pick, cytotoxicity control for RAD54 inhibitor project, dose response (AID 651692). It counts as functional. (ATP-based viability assays read luminescence as a measure of living cells.)
Assay [18] is described as follows: viability of PTEN-deleted HCT116 cells – cell-based, HCT116 PTEN knockout, dose response (AID 1047).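 Further: HCT116 colon tumor cells with PTEN knocked out; cells exposed to compound for 60 hours before readout; potency for loss of cell viability measured by luminescence.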 In kind it is functional.
A short description of assay [19]: fluconazole-exposed Candida albicans growth modulators – fluorescence, retest, confirmation (AID 2467). It counts as functional, cell-based.
Assay [20] is described as follows: NIH-3T3 fibroblast cytotoxicity, dose response, cytotoxicity control, cell-based, fluorescence, Alamar Blue, secondary assay (AID 2327).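 Further: NIH-3T3 mouse fibroblasts cultured with fluconazole at 8 µg/mL.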 It counts as functional.

T1 sequence (Q00975 whole entry): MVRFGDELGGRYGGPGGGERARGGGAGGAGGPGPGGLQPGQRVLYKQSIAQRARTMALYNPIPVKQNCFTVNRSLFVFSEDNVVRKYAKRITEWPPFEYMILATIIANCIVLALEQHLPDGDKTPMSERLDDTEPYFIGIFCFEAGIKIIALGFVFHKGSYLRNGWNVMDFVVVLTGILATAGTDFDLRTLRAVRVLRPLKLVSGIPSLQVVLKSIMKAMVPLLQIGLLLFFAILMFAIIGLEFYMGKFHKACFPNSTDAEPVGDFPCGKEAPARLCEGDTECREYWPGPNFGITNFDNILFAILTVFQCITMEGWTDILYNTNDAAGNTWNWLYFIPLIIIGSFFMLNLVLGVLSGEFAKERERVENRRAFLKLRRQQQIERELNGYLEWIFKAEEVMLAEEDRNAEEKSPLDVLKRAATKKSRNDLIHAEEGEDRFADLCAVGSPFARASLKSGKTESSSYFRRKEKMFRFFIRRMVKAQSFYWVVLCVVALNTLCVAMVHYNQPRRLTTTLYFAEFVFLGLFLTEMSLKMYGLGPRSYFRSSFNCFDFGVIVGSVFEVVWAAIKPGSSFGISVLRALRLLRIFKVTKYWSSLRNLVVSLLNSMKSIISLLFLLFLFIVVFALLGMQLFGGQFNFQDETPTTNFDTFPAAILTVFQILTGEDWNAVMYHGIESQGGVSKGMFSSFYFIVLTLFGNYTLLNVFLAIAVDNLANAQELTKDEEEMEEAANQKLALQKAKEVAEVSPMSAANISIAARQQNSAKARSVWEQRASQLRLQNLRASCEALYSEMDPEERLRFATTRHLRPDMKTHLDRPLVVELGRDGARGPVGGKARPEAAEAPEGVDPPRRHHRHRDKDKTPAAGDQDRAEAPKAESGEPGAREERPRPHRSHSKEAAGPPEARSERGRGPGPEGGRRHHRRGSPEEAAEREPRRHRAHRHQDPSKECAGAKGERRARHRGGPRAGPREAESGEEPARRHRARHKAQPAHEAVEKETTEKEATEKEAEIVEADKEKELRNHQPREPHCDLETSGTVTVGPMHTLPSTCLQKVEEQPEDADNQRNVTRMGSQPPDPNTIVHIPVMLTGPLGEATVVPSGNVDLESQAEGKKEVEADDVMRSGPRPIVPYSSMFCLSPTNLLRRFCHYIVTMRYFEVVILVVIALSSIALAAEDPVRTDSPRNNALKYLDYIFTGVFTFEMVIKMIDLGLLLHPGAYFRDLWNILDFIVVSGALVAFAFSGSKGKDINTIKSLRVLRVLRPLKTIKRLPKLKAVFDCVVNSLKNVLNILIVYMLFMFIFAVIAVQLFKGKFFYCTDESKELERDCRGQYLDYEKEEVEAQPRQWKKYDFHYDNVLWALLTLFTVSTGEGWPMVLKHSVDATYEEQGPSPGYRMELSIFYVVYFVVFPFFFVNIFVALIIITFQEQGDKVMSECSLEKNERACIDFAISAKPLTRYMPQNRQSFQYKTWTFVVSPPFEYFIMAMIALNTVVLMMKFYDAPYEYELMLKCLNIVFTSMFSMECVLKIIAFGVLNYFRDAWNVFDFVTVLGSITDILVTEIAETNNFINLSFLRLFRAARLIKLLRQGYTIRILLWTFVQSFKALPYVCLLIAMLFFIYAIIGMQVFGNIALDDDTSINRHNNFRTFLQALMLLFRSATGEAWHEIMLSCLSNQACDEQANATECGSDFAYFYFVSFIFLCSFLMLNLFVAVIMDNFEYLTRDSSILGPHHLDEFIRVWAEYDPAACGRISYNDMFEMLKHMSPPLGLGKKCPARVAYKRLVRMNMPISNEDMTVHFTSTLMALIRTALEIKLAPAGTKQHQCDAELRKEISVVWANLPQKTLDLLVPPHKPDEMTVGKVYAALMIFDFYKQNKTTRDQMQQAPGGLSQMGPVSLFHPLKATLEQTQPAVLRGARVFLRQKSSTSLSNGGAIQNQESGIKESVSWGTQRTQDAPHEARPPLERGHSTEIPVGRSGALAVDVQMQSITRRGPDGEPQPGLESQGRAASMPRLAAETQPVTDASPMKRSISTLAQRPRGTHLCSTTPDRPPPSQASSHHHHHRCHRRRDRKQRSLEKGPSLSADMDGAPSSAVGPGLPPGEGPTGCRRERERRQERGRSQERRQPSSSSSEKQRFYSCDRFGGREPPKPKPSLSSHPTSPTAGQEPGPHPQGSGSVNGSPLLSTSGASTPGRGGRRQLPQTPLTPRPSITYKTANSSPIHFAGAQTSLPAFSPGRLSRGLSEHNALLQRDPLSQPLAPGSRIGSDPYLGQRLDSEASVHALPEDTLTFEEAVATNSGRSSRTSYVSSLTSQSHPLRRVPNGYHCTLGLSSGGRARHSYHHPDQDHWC
T1 sequence (Q02410 whole entry): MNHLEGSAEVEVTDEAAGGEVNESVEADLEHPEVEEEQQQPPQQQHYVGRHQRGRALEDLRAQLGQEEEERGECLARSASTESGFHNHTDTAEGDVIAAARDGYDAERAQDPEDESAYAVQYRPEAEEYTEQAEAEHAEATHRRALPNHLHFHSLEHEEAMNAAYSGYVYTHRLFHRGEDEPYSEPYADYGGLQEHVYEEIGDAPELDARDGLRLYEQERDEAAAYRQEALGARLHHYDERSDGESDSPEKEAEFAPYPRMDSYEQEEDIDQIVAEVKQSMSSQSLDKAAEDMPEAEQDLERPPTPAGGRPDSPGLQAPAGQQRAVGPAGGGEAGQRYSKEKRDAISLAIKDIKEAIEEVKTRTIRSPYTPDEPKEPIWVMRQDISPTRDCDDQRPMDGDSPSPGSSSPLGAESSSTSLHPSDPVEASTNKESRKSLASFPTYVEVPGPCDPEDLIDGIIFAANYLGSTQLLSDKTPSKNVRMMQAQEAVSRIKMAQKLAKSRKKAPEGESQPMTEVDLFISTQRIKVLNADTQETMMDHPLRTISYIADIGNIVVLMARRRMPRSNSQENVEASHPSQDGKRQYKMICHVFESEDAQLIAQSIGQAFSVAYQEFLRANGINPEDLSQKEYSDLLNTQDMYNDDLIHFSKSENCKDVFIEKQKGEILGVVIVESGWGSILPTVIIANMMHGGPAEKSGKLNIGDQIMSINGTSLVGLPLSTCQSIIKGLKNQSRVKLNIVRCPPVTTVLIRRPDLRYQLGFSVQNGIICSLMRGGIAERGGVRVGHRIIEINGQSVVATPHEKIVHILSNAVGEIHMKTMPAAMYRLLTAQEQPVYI
Sequence of Nonstructural protein 1 (Q194T2 whole entry): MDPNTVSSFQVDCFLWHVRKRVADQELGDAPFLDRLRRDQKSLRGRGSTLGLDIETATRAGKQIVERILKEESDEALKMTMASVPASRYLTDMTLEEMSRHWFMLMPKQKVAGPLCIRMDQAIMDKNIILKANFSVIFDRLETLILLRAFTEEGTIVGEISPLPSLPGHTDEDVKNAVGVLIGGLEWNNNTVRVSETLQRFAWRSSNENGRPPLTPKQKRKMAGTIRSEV

Take `O=C(NCC1[C@H]2CN(CC3CCCC3)C[C@@H]12)c1cc(Cl)cc(Cl)c1` (stereo partly drawn): the EC50 in assay [1] is 3000 nM (active).

For the molecule `O=C(COC(=O)c1cc(-c2ccco2)nc2ccccc12)NCc1ccc(Cl)cc1`, the IC50 was 2.84 µM (active) and 4.46 µM (active) at SUMO E1/E2; 7.73 µM (active) and 9.82 µM (active) in assay [2]; 10.4 µM (active) and > 56.8 µM (inactive) in [3].

Consider `O=C(Nc1ccc(N2C(=O)[C@H]3[C@H](C2=O)[C@H]2C=C[C@@H]3C2)c(Cl)c1)c1ccccn1`, for which the EC50 in [4] is 1400 nM (inactive); in assay [5], 514 nM (inactive); in assay [6], 2510 nM (active); in [7], 787 nM (inactive); in [8], 11000 nM (inactive).

`Oc1cccc2ccc(Nc3ccccn3)nc12`: the EC50 in assay [9] was 6000 nM (active); in [12], 713 nM (active); in [15] it was 1120 nM (active); in assay [18], 1230 nM (active); in assay [19], 1550 nM (active); in [20], 4930 nM (inconclusive). Besides, the IC50 in assay [10] is > 50000 nM (not active); in assay [11], 2350 nM (active); at Nonstructural protein 1 it was 2350 nM (active); in assay [14], 3030 nM (active); in [16], 6800 nM (active). The AC50 is 15500 nM (active) in assay [13], 1180 nM (active) with INS1 and 15100 nM (active) in assay [17].
